Laboratory results published in publication doi:10.1101/144204v1, “On the use of the experimentally determined enzyme inhibition constant as a measure of absolute binding affinity” (biorxiv, 2017).
Counter-ions that a name gives are not always drawn.

Target: T1, eeAChE (Electrophorus electricus acetylcholinesterase) (Electrophorus electricus, UniProt O42275)
T1 construct: gene ache; construct details not given
Assay: Ellman assay (ATCh/DTNB, […] nm), Lineweaver-Burk
Assay type: biochemical

T1 sequence (O42275 24-633): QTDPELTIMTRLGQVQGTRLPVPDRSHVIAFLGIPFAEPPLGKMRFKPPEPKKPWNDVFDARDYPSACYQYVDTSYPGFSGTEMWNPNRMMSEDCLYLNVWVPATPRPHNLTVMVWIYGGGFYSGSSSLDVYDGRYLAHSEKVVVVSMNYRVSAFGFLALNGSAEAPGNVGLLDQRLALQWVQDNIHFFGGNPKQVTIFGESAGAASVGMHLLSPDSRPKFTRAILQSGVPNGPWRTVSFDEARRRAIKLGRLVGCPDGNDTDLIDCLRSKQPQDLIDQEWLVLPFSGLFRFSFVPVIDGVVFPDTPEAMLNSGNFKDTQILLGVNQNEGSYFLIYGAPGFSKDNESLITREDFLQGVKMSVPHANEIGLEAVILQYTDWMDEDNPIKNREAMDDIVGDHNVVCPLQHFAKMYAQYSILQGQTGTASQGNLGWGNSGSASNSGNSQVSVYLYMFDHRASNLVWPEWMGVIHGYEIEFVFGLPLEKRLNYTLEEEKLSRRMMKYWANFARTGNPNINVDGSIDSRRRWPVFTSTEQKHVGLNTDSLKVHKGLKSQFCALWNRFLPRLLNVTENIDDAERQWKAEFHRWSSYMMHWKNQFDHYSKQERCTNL

## c1ccc2c(NCCCCCCCNc3c4c(nc5ccccc35)CCCC4)c3c(nc2c1)CCCC3 [bis(7)-tacrine, 1,7-N-heptylene-bis-9,9'-amino-1,2,3,4-tetrahydro-acridinium dihydrochloride]
  Ki: 2.9 ± 0.4 pM
